Measurements as given in US20100317730A1, “Treatment for menopausal and perimenopausal vasomotor symptons” (priority 2009, published 2010).

Test system: perimenopausal and menopausal vasomotor symptoms, hot flashes and excessive sweating
Assay: Clinical use of topiramate for menopausal and perimenopausal vasomotor symptoms
Type: in vivo, human
Excerpt: Based on data and observations made by the inventor, they have found topiramate to have the following, previously undiscovered, beneficial pharmacological effects for patients with excessive sweating and hot flashes. They are as follows: • 1. […] Helps to prevent patients from experiencing hot flashes, excessive sweating, and vasomotor symptoms associated with their perimenopause and menopause. • 3. Substantial improve or completely suppress nighttime vasomotor symptoms, excessive sweating, and hot flashes associated with perimenopause and menopause. • 4. Substantial improve or completely suppress daytime vasomotor symptoms, excessive sweating, and hot flashes associated with perimenopause and menopause. • 5. Effective in controlling these symptoms when taken only on an as needed basis. […] Optionally, the topiramate can be taken as a low dose on an as-needed basis. […] a person had been stable on their current treatment for Panic and Major Depressive Disorders with a satisfactory remission for several years and without any side effect complaints. However, now […], they started developing menopausal symptoms of hot flashes and excessive sweating. After counselling and informed consent about the off-label use, they took a trial of topiramate 25 mg by mouth twice daily. Upon follow up, they confirmed that the excessive sweating was improved with this low dose of topiramate and that they have found it to be effective when taken on an as needed basis, depending on their expectations of physical activity and weather/temperature conditions. […] Several other similar clinical examples were observed.

`CC1(C)O[C@@H]2[C@@H](CO[C@@]3(COS(N)(=O)=O)OC(C)(C)O[C@@H]23)O1` [topiramate] was tested, and the excessive sweating (A person, menopausal hot flashes and excessive sweating, topiramate 25 mg by mouth twice daily, at follow up) was “improved”, the “effectiveness when taken on an as needed basis” value (A person, low dose topiramate taken as needed, depending on physical activity and weather/temperature) was “effective” and the adverse effects (A person, topiramate 25 mg by mouth twice daily) was “no adverse effects”. For the same compound, the side effects (inventor's patients, small doses) was “minimal to no side effects”, the “vasomotor symptoms, excessive sweating and hot flashes” value (perimenopausal and menopausal patients, inventor's data and observations) was “Substantial improvement” and the “treating hot flashes and hyperhidrosis” value (perimenopausal and menopausal women, doses as low as 12.5 mg per day) was “highly effective”.
